Laboratory results taken from ChEMBL document CHEMBL6071176, “Development of Phloroglucinol-Linked Tris-Quaternary Ammonium Salt Antimicrobial Peptide Mimics with Low Cytotoxicity and Broad-Spectrum Antibacterial Activity” (J Med Chem, 2024).
The source made the active and inactive calls. The calls are words filed in the database; no cut-off is given here.

What was measured:
Staphylococcus aureus [1] = experiment: Down-regulation of aspartate/ornithine carbamoyltransferase in Staphylococcus aureus at 0.25 ug/ml and incubated for 4 hrs by Transcriptome analysis; format: functional, organism-based; settings: dose 0.25 µg/ml
[2] = Toxicity in female SPF Kunming mouse assessed as change in UREA level at 20 mg/kg/day, ip measured after 24 hrs; format: organism-based; settings: in vivo
Escherichia coli [3] = experiment: Bactericidal activity against early exponential phase Escherichia coli assessed as bacterial killing at 3 ug/ml incubated for 12 hrs by time-kill assay; format: functional, organism-based; settings: dose 3.0 µg/ml
Staphylococcus aureus [4] = experiment: Induction of ROS level in Staphylococcus aureus assessed as increase in intracellular ROS level by measuring fold increase in fluorescent intensity at 0.5 ug/ml measured after 4.5 hrs by ROS-sensitive fluorescent probe DCF-DA staining based assay; format: functional; settings: dose 0.5 µg/ml
Staphylococcus aureus [5] = experiment: Up-regulation of quorum sensing pathway genes in Staphylococcus aureus at 0.25 ug/ml and incubated for 4 hrs by Transcriptome analysis; format: functional, organism-based; settings: dose 0.25 µg/ml
Cell membrane [6] = experiment: Induction of Cytoplasmic membrane depolarization in Staphylococcus aureus assessed as increase in fluorescence intensity measured at 6 times of MIC measured after 4 hrs by DiSC3(5) dye-based fluorescence assay; format: subcellular
Staphylococcus aureus [7] = experiment: Down-regulation of thiamine pyrophosphate enzyme in Staphylococcus aureus at 0.25 ug/ml and incubated for 4 hrs by Transcriptome analysis; format: functional, organism-based; settings: dose 0.25 µg/ml
[8] = Toxicity in female SPF Kunming mouse assessed as change in CREA level at 20 mg/kg/day, ip measured after 24 hrs; format: organism-based; settings: in vivo
Escherichia coli [9] = experiment: Resistance development in Escherichia coli assessed as increase in MIC measured within 20 passages of continues culture; format: functional
Staphylococcus aureus [10] = experiment: Resistance development in Staphylococcus aureus assessed as increase in MIC measured within 20 passages of continues culture; format: functional
Staphylococcus aureus [11] = experiment: Down-regulation of N-terminal TPP binding domain in Staphylococcus aureus at 0.25 ug/ml and incubated for 4 hrs by Transcriptome analysis; format: functional, organism-based; settings: dose 0.25 µg/ml
Staphylococcus aureus [12] = experiment: Bactericidal activity against Staphylococcus aureus assessed as bacterial killing in presence of 50% serum; format: functional, organism-based
[13] = Toxicity in female SPF Kunming mouse assessed as change in PLT count at 20 mg/kg/day, ip measured after 24 hrs; format: organism-based; settings: in vivo
[14] = Toxicity in female SPF Kunming mouse assessed as pathological changes in liver at 200 mg/kg/day, sc measured after 24 hrs by hematoxylin and eosin staining based assay; format: organism-based; settings: in vivo
[15] = Cytotoxicity against human Gastric mucosal cells measured assessed as cell morphology at 32 ug/ml measured after 24 hrs by Electron scanning microscopy; format: toxicity, cell-based; settings: dose 32 µg/ml
Staphylococcus aureus [16] = experiment: Anti-biofilim activity against Staphylococcus aureus biofilm assessed bacterial survival rate at 16 ug/ml measured after 24 hrs incubation; format: functional
[17] = Toxicity in female SPF Kunming mouse assessed as change in WBC count at 20 mg/kg/day, ip measured after 24 hrs; format: organism-based; settings: in vivo
[18] = Hemolytic activity in Red blood cells (unknown origin) assessed as hemolytic rate at 1280 ug/ml relative to control; format: toxicity, cell-based, Erythrocyte; settings: at 1280 µg/mL, read-out: Activity
[19] = Toxicity in female SPF Kunming mouse assessed as change in HCT count at 20 mg/kg/day, ip measured after 24 hrs; format: organism-based; settings: in vivo
Escherichia coli [20] = experiment: Bactericidal activity against late exponential phase Escherichia coli assessed as bacterial elimination at 8 ug/ml incubated for 6 to 8 hrs by time-kill assay; format: functional; settings: dose 8 µg/ml; time 6-8 hrs
Enterococcus faecalis = experiment: Antimicrobial activity against Enterococcus faecalis assessed as inhibition of growth incubated for 18 hrs by CLSI guidelines based assay; format: functional
Staphylococcus aureus [21] = experiment: Anti-microbial activity against Staphylococcus aureus assessed as bacterial growth inhibition in presence of CL (exogenous bacterial cell membrane component) measured after 18 hrs; format: functional, organism-based
Staphylococcus aureus [22] = experiment: Anti-biofilim activity against Staphylococcus aureus biofilm assessed bacterial survival rate at 8 ug/ml measured after 24 hrs incubation; format: functional
Staphylococcus aureus [23] = experiment: Bactericidal activity against Staphylococcus aureus assessed as bacterial killing in presence of 50% plasma; format: functional, organism-based
Staphylococcus aureus [24] = experiment: Anti-microbial activity against Staphylococcus aureus assessed as bacterial growth inhibition in presence of 0.5 to […] ug/ml PG (exogenous bacterial cell membrane component) measured after 18 hrs; format: functional, organism-based
Staphylococcus aureus [25] = experiment: Antibacterial activity against methicillin-resistant Staphylococcus aureus assessed as inhibition of bacterial growth incubated for 18 hrs by CLSI guidelines based assay; format: functional
Staphylococcus aureus [26] = experiment: In vivo antibacterial activity against methicillin-resistant Staphylococcus aureus subcutaneously infected in SPF female Kunming mouse model assessed as reduction wound at 5 mg/kg/day injected into blister after 6 hrs of infection measured after 6 consecutive treatments; format: functional
Staphylococcus aureus [27] = experiment: Anti-microbial activity against Staphylococcus aureus assessed as bacterial growth inhibition in presence of LPS (exogenous bacterial cell membrane component) measured after 18 hrs; format: functional, organism-based
Staphylococcus aureus [28] = experiment: Antimicrobial activity against Staphylococcus aureus assessed as inhibition of growth incubated for 18 hrs by CLSI guidelines based assay; format: functional
Staphylococcus aureus [29] = experiment: Bactericidal activity against early exponential phase Staphylococcus aureus assessed as bacterial killing at 3 ug/ml incubated for 4 hrs by time-kill assay; format: functional, organism-based; settings: dose 3.0 µg/ml
Cell membrane [30] = experiment: Induction of membrane damage in Escherichia coli assessed as nucleic acid leakage measured at 0.5 to 2 times of MIC by microplate spectrophotometry; format: subcellular; settings: TDE = time-dependent effect
[31] = Toxicity in female SPF Kunming mouse assessed as survival rate at 200 mg/kg/day, sc measured after 24 hrs; format: organism-based; settings: in vivo
Staphylococcus aureus [32] = experiment: Antibacterial activity against methicillin-resistant Staphylococcus aureus assessed as inhibition of bacterial growth measured after 6 hrs in presence of plasma; format: functional, organism-based
Cell membrane [33] = experiment: Induction of membrane damage in Staphylococcus aureus assessed as nucleic acid leakage measured at 0.5 to 2 times of MIC by microplate spectrophotometry; format: subcellular; settings: TDE = time-dependent effect
[34] = Toxicity in female SPF Kunming mouse assessed as pathological changes in spleen at 200 mg/kg/day, sc measured after 24 hrs by hematoxylin and eosin staining based assay; format: organism-based; settings: in vivo
Staphylococcus aureus [35] = experiment: Bactericidal activity against Staphylococcus aureus assessed as bacterial killing in presence of Mueller-Hinton broth; format: functional, organism-based
[36] = Toxicity in female SPF Kunming mouse assessed as change in RBC count at 20 mg/kg/day, ip measured after 24 hrs; format: organism-based; settings: in vivo
Staphylococcus aureus [37] = experiment: Anti-bacterial activity against 100 times rifampicin induced persistent cells of Staphylococcus aureus assessed as reduction in persistent cells at 32 times of MIC; format: functional
[38] = Toxicity in female SPF Kunming mouse assessed as change in MCV count at 20 mg/kg/day, ip measured after 24 hrs; format: organism-based; settings: in vivo
[39] = Toxicity in female SPF Kunming mouse assessed as pathological changes in kidney at 200 mg/kg/day, sc measured after 24 hrs by hematoxylin and eosin staining based assay; format: organism-based; settings: in vivo
Staphylococcus aureus [40] = experiment: Induction of morphological changes in Staphylococcus aureus assessed as wrinkled/cracked surface at 4 ug/ml incubated for 4 hrs by Scanning electron microscopy (SEM); format: functional, organism-based; settings: dose 4.0 µg/ml
Staphylococcus aureus [41] = experiment: Antibacterial activity against methicillin-resistant Staphylococcus aureus assessed as inhibition of bacterial growth measured after 3 hrs in presence of plasma; format: functional, organism-based
[42] = Cytotoxicity against human Gastric mucosal cells measured after 24 hrs by CCK-8 assay; format: toxicity, cell-based, Gastric mucosal cell

With CCCCCCCC[N+](C)(C)CCCCOc1cc(OCCCC[N+](C)(C)CCCCCCCC)cc(OCCCC[N+](C)(C)CCCCCCCC)c1.[Br-].[Br-].[Br-] the Activity (Staphylococcus aureus [1]) was “Active”, the Activity [2] was “Non-Toxic” and the Activity (Escherichia coli [3]) was “Active”. The “fold change (FC)” value (Staphylococcus aureus [4]) was 3, the Activity (Staphylococcus aureus [5]) was “Active” and the Activity (Cell membrane [6]) was “Active”. The Activity (Staphylococcus aureus [7]) was “Active”, the Activity [8] was “Non-Toxic” and the MIC (Escherichia coli [9]) was 1 µg/mL. The MIC (Staphylococcus aureus [10]) was 0.5 µg/mL, the Activity (Staphylococcus aureus [11]) was “Active” and the Activity (Staphylococcus aureus [12]) was “Active”. The Activity [13] was “Non-Toxic”, the Activity [14] was “Non-Toxic” and the Activity [15] was “Non-Toxic”. For the same compound, the survival at 16 µg/mL (Staphylococcus aureus [16]) was 0.01%, the Activity [17] was “Non-Toxic” and the hemolysis at 1280 ug/ml [18] was less than 5%. The Activity [19] was “Non-Toxic”, the Activity (Escherichia coli [20]) was 100% and the MIC (Enterococcus faecalis) was 1 µg/mL. The Activity (Staphylococcus aureus [21]) was “Active”, the survival at 8 µg/mL (Staphylococcus aureus [22]) was 0.61% and the Activity (Staphylococcus aureus [23]) was “Active”. For the same compound, the Activity (Staphylococcus aureus [24]) was “inactive”, the MIC50 (Staphylococcus aureus [25]) was 1 µg/mL and the MIC90 (Staphylococcus aureus [25]) was no less than 16 µg/mL. For the same compound, the Activity (Staphylococcus aureus [26]) was 251188.6 CFU, the Activity (Staphylococcus aureus [27]) was “inactive” and the MIC (Staphylococcus aureus [28]) was 0.5 µg/mL. For the same compound, the Activity (Staphylococcus aureus [29]) was “Active”, the Activity (Cell membrane [30]) was “Tde” and the survival at 24 h [31] was 100%. For the same compound, the Activity (Staphylococcus aureus [32]) was “Active”, the Activity (Cell membrane [33]) was “Tde” and the Activity [34] was “Non-Toxic”. The Activity (Staphylococcus aureus [35]) was “Active”, the Activity [36] was “Non-Toxic” and the Activity (Staphylococcus aureus [37]) was 5.7 log10CFU/ml. For the same compound, the Activity [38] was “Non-Toxic”, the Activity [39] was “Non-Toxic” and the Activity (Staphylococcus aureus [40]) was “Active”. The Activity (Staphylococcus aureus [41]) was “Active” and the CC50 at 24 h [42] was less than 153 µg/mL.
